Measured values from patent publication EP0128338A1, “Silver pseudomonate, compositions containing it and its use in treating pseudomonal infections” (BEECHAM GROUP PLC, priority 1983, dated 1984).

Tested on: Pseudomonas aeruginosa
Experiment: Minimum inhibitory concentrations (MICs) against 20 strains of Pseudomonas aeruginosa in Blood Agar Base
Format: cell-based
Description: • a) The minimum inhibitory concentrations (MICs) of silver pseudomonate and sodium pseudomonate were determined against 20 strains of Pseudomonas aeruginosa in Blood Agar Base. […] Typical results are presented in Table 2. [formula] [formula]

Silver Pseudomonate A
minimum inhibitory concentrations (MICs) (20 strains of Pseudomonas aeruginosa, Blood Agar Base, comparison in words): more active than sodium pseudomonate against all strains tested
activity against Pseudomonas organisms (general statement in words): active
